The values that follow come from US20030181441A1, “TACE INHIBITORS” (priority 1998, published 2003).

What is called IC50 is the concentration at which inhibition is half-maximal.

What all share (assay type): biochemical
One test deals with TACE (Homo sapiens, UniProt P78536). In words: Recombinant TNFα converting enzyme (TACE) activity, fluorescent quenched substrate. Particulars: for MMP-1/TACE IC50 selectivity ratio: ratio of MMP-1 and TACE IC50 values. An excerpt:
Method for the Evaluation of Recombinant TNFα Converting Enzyme Activity.
Preparation of Recombinant TACE:
A DNA fragment coding for the signal sequence, prodomain and catalytic domain of TACE (amino acids […]), was amplified by polymerase chain reaction using a human lung cDNA library as a template. The amplified fragment was cloned into pFastBac vector. The DNA sequence of the insert was confirmed for both the strands. A bacmid prepared using pFastBac in E. coli DH10Bac was transfected into SF9 insect cells. The virus particles were amplified to P1, P2, P3 stages. The P3 virus was infected into both Sf9 and High Five insect cells and grown at 27° C. for 48 hours. The medium was collected and used for assays and further purification.
Preparation of Fluorescent Quenched Substrate:
A model peptidic TNF-α substrate (LY-LeucineAlanineGlutamineAlanineValine-ArginineSerine-SerineLysine(CMTR)-Arginine (LY=Lucifer Yellow; CMTR=5-carboxytetramethyl Rhodamine)) was prepared and the concentration estimated by absorbance at 560 nm (E560, 60,000 M-1CM-1) according to the method of Geoghegan, K F, “Improved method for converting an unmodified peptide to an energy-transfer substrate for a proteinase.” Bioconjugate Chem. 7, 385-391 (1995). This peptide encompasses the cleavage cite on pro-TNF which is cleaved in vivo by TACE.
The reaction, carried out in a 96 well plate (Dynatech), was comprised of 70 μl of buffer solution (25 mM Hepes-HCl, pH 7.5, plus 20 uM ZnCl2), 10 μl of 100 μM fluorescent quenched substrate, 10 μl of a DMSO (5%) solution of test compound, and an amount of r-TACE enzyme which will cause 50% cleavage in 60 minutes—in a total volume of 100 μl. The specificity of the enzyme cleavage at the amide bond between alanine and valine was verified by HPLC and mass spectrometry. Initial rates of cleavage were monitored by measuring the rate of increase in fluorescence at 530 nm (excitation at 409 nm) over 30 minutes. The experiment was controlled as follows: 1) for background fluorescence of substrate; 2) for fluorescence of fully cleaved substrate; 3) for fluorescence quenching or augmentation from solutions containing test compound.
The rates from the non-test compound containing “control” reactions were averaged to establish the 100% value. The rate of reaction in the presence of test compound was compared to that in the absence of compound, and tabulated as “percent of non-test compound containing control. The results were plotted as “% of control” vs. the log of compound concentration and a half-maximal point or IC50 value determined. The IC50 for the above assay is a measure of the inhibition of the TNF-α proteolytic activity of TACE. Blockage of binding of TNF-α to TACE as used herein is as described in U.S. Pat. No. 5,830,742, issued Nov. 3, 1998.

The target of the next test is MMP-13 (Homo sapiens, UniProt P45452). In words: Inhibition of MMP-13, fluorescence assay. Here is the method:
Human recombinant MMP-13 is activated with 2 mM APMA (p-aminophenyl mercuric acetate) for 1.5 hours, at 37° C. and is diluted to […] in assay buffer (50 mM Tris, pH 7.5, 200 mM sodium chloride, 5 mM calcium chloride, 20 μM zinc chloride, 0.02% brij). Twenty-five microliters of diluted enzyme is added per well of a 96 well microfluor plate. The enzyme is then diluted in a 1:4 ratio in the assay by the addition of inhibitor and substrate to give a final concentration in the assay of […].
10 mM stock solutions of inhibitors are made up in dimethyl sulfoxide and then diluted in assay buffer as per the inhibitor dilution scheme for inhibition of human collagenase (MMP-1): Twenty-five microliters of each concentration is added in triplicate to the microfluor plate. The final concentrations in the assay are 30 μM, 3 μM, 0.3 μM, and 0.03 μM.
Substrate (Dnp-Pro-Cha-Gly-Cys(Me)-His-Ala-Lys(NMA)—NH2) is prepared as for inhibition of human collagenase (MMP-1) and […] is added to each well to give a final assay concentration of 10 μM. Fluorescence readings (360 nm excitation; 450 emission) are taken at time 0 and every 5 minutes for 1 hour.
Positive controls consist of enzyme and substrate with no inhibitor and blanks consist of substrate only.
IC50's are determined as per inhibition of human collagenase (MMP-1). If IC50's are reported to be less than 0.03 μM, inhibitors are then assayed at final concentrations of 0.3 μM, 0.03 μM, 0.003 μM and 0.0003 μM.

The next test concerns the target T1, MMP-1 (Homo sapiens, UniProt P03956).
T1 sequence (P03956 100-469): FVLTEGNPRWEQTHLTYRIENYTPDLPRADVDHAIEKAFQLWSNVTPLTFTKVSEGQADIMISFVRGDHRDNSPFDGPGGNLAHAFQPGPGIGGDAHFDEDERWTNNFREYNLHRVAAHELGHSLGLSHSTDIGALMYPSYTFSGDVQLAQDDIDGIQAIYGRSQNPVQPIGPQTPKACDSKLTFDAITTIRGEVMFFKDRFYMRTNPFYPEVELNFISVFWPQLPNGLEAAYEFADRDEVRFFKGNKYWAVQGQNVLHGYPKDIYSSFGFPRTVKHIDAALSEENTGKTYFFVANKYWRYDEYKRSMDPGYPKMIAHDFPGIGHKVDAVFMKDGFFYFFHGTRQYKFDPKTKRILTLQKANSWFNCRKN
In words: Inhibition of Human Collagenase (MMP-1), fluorescence assay. On the procedure:
Inhibition of Human Collagenase (MMP-1)
Human recombinant collagenase is activated with trypsin using the following ratio: 10 μg trypsin per 100 μg of collagenase. The trypsin and collagenase are incubated at room temperature for 10 minutes then a five fold excess (50 μg/10 μg trypsin) of soybean trypsin inhibitor is added.
10 mM stock solutions of inhibitors are made up in dimethyl sulfoxide and then diluted using the following Scheme:
Twenty-five microliters of each concentration is then added in triplicate to appropriate wells of a 96 well microfluor plate. The final concentration of inhibitor will be a 1:4 dilution after addition of enzyme and substrate. Positive controls (enzyme, no inhibitor) are set up in wells D1-D6 and blanks (no enzyme, no inhibitors) are set in wells D7-D12.
Collagenase is diluted to 400 ng/ml and 25 μl is then added to appropriate wells of the microfluor plate. Final concentration of collagenase in the assay is 100 ng/ml.
Substrate (DNP-Pro-Cha-Gly-Cys(Me)-His-Ala-Lys(NMA)-NH2) is made as a 5 mM stock in dimethyl sulfoxide and then diluted to […] in assay buffer. The assay is initiated by the addition of 50 μl substrate per well of the microfluor plate to give a final concentration of […] Fluorescence readings (360 nm excitation, 460 nm emission) were taken at time 0 and then at 20 minute intervals. The assay is conducted at room temperature with a typical assay time of 3 hours.
Fluorescence vs time is then plotted for both the blank and collagenase containing samples (data from triplicate determinations is averaged). […] The zero time is used as a blank for each compound at each concentration and these values are subtracted from the 120 minute data. Data is plotted as inhibitor concentration vs % control (inhibitor fluorescence divided by fluorescence of collagenase alone×100). IC50's are determined from the concentration of inhibitor that gives a signal that is 50% of the control.
If IC50's are reported to be <0.03 μM then the inhibitors are assayed at concentrations of 0.3 μM, 0.03 μM, […].

TACE, sequence (P78536 223-474): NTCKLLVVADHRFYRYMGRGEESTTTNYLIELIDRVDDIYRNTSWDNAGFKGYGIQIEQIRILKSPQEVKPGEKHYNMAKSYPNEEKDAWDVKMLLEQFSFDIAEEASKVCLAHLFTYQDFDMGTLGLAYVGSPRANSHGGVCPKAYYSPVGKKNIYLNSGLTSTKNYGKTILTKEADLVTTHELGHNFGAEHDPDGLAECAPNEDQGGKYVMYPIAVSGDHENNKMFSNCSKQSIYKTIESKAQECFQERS

For the compound `CC1(C)[C@H](C(=O)NO)N(S(=O)(=O)c2ccc(OCc3ccc(F)cc3)cc2)CC[S+]1[O-]` (some centres unmarked), the half-maximal inhibitory concentration (IC50) is 7.4 nM at TACE, 5 nM on MMP-13 and 345 nM against MMP-1. Further, the “MMP-1/TACE IC50 selectivity ratio” value at TACE was 46.6.

Consider `CC1(C)[C@H](C(=O)NO)N(S(=O)(=O)c2ccc(OCc3ccc(F)cc3)cc2)CCS1(=O)=O`, for which the IC50 was 7.2 nM on TACE, 1.4 nM against MMP-13 and 305 nM at MMP-1. The “MMP-1/TACE IC50 selectivity ratio” value at TACE is 42.4.

Regarding `C[C@@H]1NCCN(S(=O)(=O)c2ccc(OCc3ccccc3)cc2)[C@H]1C(=O)NO`, the IC50 on TACE is 25 nM; at MMP-13 it was 8 nM; against MMP-1, 7480 nM. Moreover, the “MMP-1/TACE IC50 selectivity ratio” value on TACE is reported as 299.

Regarding `Cc1ccccc1COc1ccc(S(=O)(=O)N2CCN[C@@H](C)[C@@H]2C(=O)NO)cc1`, the figures for the 50% inhibitory concentration (IC50) on TACE, against MMP-13 and on MMP-1 were 19 nM, 18 nM and 10600 nM, respectively. In addition, the “MMP-1/TACE IC50 selectivity ratio” value on TACE was 558.

As to `CC(=O)N1CCN(S(=O)(=O)c2ccc(OCc3ccccc3C)cc2)[C@@H](C(=O)NO)[C@@H]1C`, the IC50 at TACE is 6.2 nM; against MMP-13, 3 nM; on MMP-1, 1600 nM. Besides, at TACE, the “MMP-1/TACE IC50 selectivity ratio” value was 258.

For the compound `Cc1ccc(C)c(COc2ccc(S(=O)(=O)N3C[C@H](C)O[C@@H](C)[C@@H]3C(=O)NO)cc2)c1`, the values for the IC50 at TACE, against MMP-13 and against MMP-1 were 10 nM, 88 nM and 3500 nM, respectively. For the same compound, the “MMP-1/TACE IC50 selectivity ratio” value at TACE is reported as 350.

For the compound `C[C@@H]1O[C@@H](CO)CN(S(=O)(=O)c2ccc(OCc3ccc(F)cc3)cc2)[C@H]1C(=O)NO`, the concentration for half-maximal inhibition (IC50) on TACE amounted to 4.5 nM; against MMP-13 it was 1 nM; on MMP-1, 1400 nM. For the same compound, the “MMP-1/TACE IC50 selectivity ratio” value at TACE was found to be 311.

Take `C[C@@H]1O[C@@H](C)CN(S(=O)(=O)c2ccc(OCc3ccncc3)cc2)[C@H]1C(=O)NO`: the IC50 at TACE came out at 12 nM; against MMP-13 it was 6 nM; on MMP-1, 2000 nM. Besides, at TACE, the “MMP-1/TACE IC50 selectivity ratio” value is listed as 167.
